Values of other authors in patent US20250195564A1, “IRON SUPPLEMENT COMPOSITIONS AND METHODS OF USE THEREOF” (ThermoLife International, LLC, priority 2021, published 2025).

Conditions: iron supplementation; without supplementation mean 36±11 days

Structure (SMILES): O=S(=O)([O-])[O-].[Fe+2] [iron sulfate]
- time of hemoglobin recovery after blood donation: 32 days
